Laboratory results published in US10532068B2, “Dual molecular delivery of oligonucleotides and peptide containing conjugates” (Merck Sharp & Dohme Corp., priority 2013, dated 2020).
Where no end group is shown, it is not given here. [ ]: non-standard residue; d: D form. S‑S‑TGN = not defined here; TGN = not defined here

Tested on: CTNNB1
Assay: In vivo evaluation in mice: liver mRNA knockdown measurement (TaqMan qPCR)
Set-up: species or system CD-1 mice
Description: Female CD-1 mice (Charles River) were injected in accordance with either a sequential dosing paradigm or a co-dosing paradigm. In the sequential dosing paradigm, the targeted siRNA (SCE) is dosed at t=0 and the targeted peptide is separately dosed up to 2 hr before the SCE (−2 hr) or up to 24 hr after the SCE (+24 hr). In the co-dosing paradigm, the SCE and peptides are co-formulated and dosed together in the same formulation as a single injection at t=0. The mice were dosed either by intravenous (i.v.) or subcutaneous (s.c.) injection of SCE and peptide. For the i.v. doses, the compounds were injected into the tail vein of the mice. For the s.c. doses, the compounds were injected in the subcutaneous space on the back of the mouse between the shoulder blades. At the indicated harvest times (measured from t=0 when the siRNA was dosed, regardless of when the peptide was dosed), the animals were sacrificed and 3 mm liver punches were collected, preserved in RNAlater (Ambion), and stored at 4° C. Separate 5 mm liver punches were collected, placed in 96-well plates, frozen on dry ice, and stored at −80° C. until use.
The 3 mm liver punches were removed from RNAlater and homogenized in Trizol (Invitrogen) using a bead mill tissue lyser (Qiagen); disruption was performed for two 5-minute cycles at 30 Hz. RNA extraction was performed using 1-bromo-2-chloropropane (Acros Organics) and total RNA was isolated from the aqueous phase using the MagMax RNA isolation method (Ambion). […] TaqMan qPCR analysis was performed with an ABI 7900 Real-Time PCR System using TaqMan Fast Advanced Master Mix (Applied Biosystems). All TaqMan probes and primers for CTNNB1 and PPIB (housekeeping gene) were purchased from Applied Biosystems as pre-validated gene expression assays. Results are calculated by the comparative Ct method, where the difference between the CTNNB1 Ct value and the PPIB Ct value (ΔCt) is calculated and then further normalized relative to the PBS control by taking a second difference (ΔΔCt), as described previously (1).

[1] = Table 6, mice, sequential, peptide IV 15 min after siRNA IV, TGN-L-siRNA-II 0.25 mg/kg, peptide 1 mg/kg
[2] = Table 6, mice, sequential, peptide IV 15 min after siRNA IV, TGN-L-siRNA-II 0.25 mg/kg, peptide 3 mg/kg
[3] = Table 6, mice, sequential, peptide IV 15 min after siRNA IV, TGN-L-siRNA-III 0.25 mg/kg, peptide 2 mg/kg
[4] = Table 6, mice, sequential, peptide IV 15 min after siRNA IV, TGN-L-siRNA-III 0.25 mg/kg, peptide 10 mg/kg
[5] = Table 6, mice, sequential, peptide IV 15 min after siRNA IV, TGN-L-siRNA-III 0.5 mg/kg, peptide 5 mg/kg
[6] = Table 6, mice, sequential, peptide IV 15 min after siRNA IV, TGN-L-siRNA-III 0.5 mg/kg, peptide 2 mg/kg
[7] = Table 6, mice, sequential, peptide IV 15 min after siRNA IV, TGN-L-siRNA-III 0.5 mg/kg, peptide 10 mg/kg
[8] = Table 6, mice, sequential, peptide IV 15 min after siRNA IV, TGN-L-siRNA-III 0.25 mg/kg, peptide 5 mg/kg

“TGN-S-S-SEQ ID NO: 1738 (D) (G[dL][dF]G[dE][dI][dE][dE][dL][dI][dE][dE]G[dL][dE][dN][dL][dI][dD][dW]G[dN]G[dL][dA][dE][dL][dA][dE][dA][dL][dE][dA][dL][dA][dA]GG[dS][dC]; not fully specified; also: disulfide to TGN peptide via C-terminal Cys; listed as Homo sapiens)” was tested, and the “In vivo mRNA knockdown (%)” value [1] was 25% and the “In vivo mRNA knockdown (%)” value [2] was 44%.

With “TGN-CDM-SEQ ID NO: 1801 (D): TGN-CDM peptide, peptide glfgeieelieeglenlidwgng; C8 made from same all-D sequence (SEQ ID NO: 1074) (G[dL][dF]G[dE][dI][dE][dE][dL][dI][dE][dE]G[dL][dE][dN][dL][dI][dD][dW]G[dN]G; also: TGN-CDM conjugate; listed as Homo sapiens)” the “In vivo mRNA knockdown (%)” value (Table 8 (disulfide vs. ECL vs. CDM linkage), TGN-L-siRNA-II 0.25 mg/kg, targeted peptide 1 mg/kg) was 23.0% and the “In vivo mRNA knockdown (%)” value (Table 8 (disulfide vs. ECL vs. CDM linkage), TGN-L-siRNA-II 0.25 mg/kg, targeted peptide 3 mg/kg) was 24.9%.

In the case of “TGN-S-S-SEQ ID NO: 1713 (L): TGN-S-S-peptide, peptide CGL-R6H-GELEEL-S7H-EEGLENLIDWWNG (STAPLED)”, the “In vivo mRNA knockdown (%)” value [3] is reported as 0% and the “In vivo mRNA knockdown (%)” value [4] is reported as 2%.

In the case of “TGN-S-S-SEQ ID NO: 1716 (L) (C(TGN)GLFEELAGLLWHGLKNLIDWWNG; reading uncertain; also: Cys disulfide-linked to TGN peptide; listed as Homo sapiens)”, the “In vivo mRNA knockdown (%)” value [5] is reported as 39%.

With “TGN-S-S-SEQ ID NO: 1489 (D) ([dC](S‑S‑TGN)[dL][dE][dL][dW][dL][dE][dH][dL][dF][dL][dE][dL][dE]; reading uncertain; also: Cys disulfide-linked to TGN peptide; listed as Homo sapiens)” the “In vivo mRNA knockdown (%)” value [6] was 37%, the “In vivo mRNA knockdown (%)” value [7] was 26% and the “In vivo mRNA knockdown (%)” value (Table 6, mice, sequential, peptide IV 15 min after siRNA IV, TGN-L-siRNA-III 0.5 mg/kg, peptide 25 mg/kg) was 34%.

With “TGN-S-S-SEQ ID NO: 1717(L): TGN-S-S-peptide, peptide CFLGALFHALSHLLENLIDWWNG (C(TGN)FLGALFHALSHLLENLIDWWNG; reading uncertain; also: Cys disulfide-linked to TGN peptide; listed as Homo sapiens)” the “In vivo mRNA knockdown (%)” value [5] was 16%.

With “TGN-S-S-SEQ ID NO: 1248 (L) (C(TGN)FLEELWELLEHLL; reading uncertain; listed as Homo sapiens)” the “In vivo mRNA knockdown (%)” value [5] was 24%.

“TGN-S-S-SEQ ID NO: 1741(L): TGN-S-S-peptide, peptide GLFGALAEALAEALAEHLAEALAEALEALAAGGSC (GLFGALAEALAEALAEHLAEALAEALEALAAGGSC(TGN); reading uncertain; also: TGN attached via disulfide (S-S); listed as Homo sapiens)” was tested, and the “In vivo mRNA knockdown (%)” value [2] was 24%.

With “TGN-S-S-SEQ ID NO: 1746 (D): TGN-S-S-peptide, peptide CEALFGKINAIFIGKL ([dC][dE][dA][dL][dF]G[dK][dI][dN][dA][dI][dF][dI]G[dK][dL]; also: disulfide to TGN peptide via N-terminal Cys; listed as Homo sapiens)” the “In vivo mRNA knockdown (%)” value [6] was 31% and the “In vivo mRNA knockdown (%)” value [7] was 25%.

With “TGN-S-S-SEQ ID NO: 935 (L) (C(TGN)GFFGEIAELIWEGLKNLIDWWNG; reading uncertain; also: TGN attached via disulfide (S-S); listed as Homo sapiens)” the “In vivo mRNA knockdown (%)” value [3] was 17% and the “In vivo mRNA knockdown (%)” value [4] was 23%.

For “TGN-S-S-SEQ ID NO: 1633 (D) ([dC](TGN)G[dL][dF]G[dE][dI][dH][dH][dL][dI][dH][dH]G[dL][dE][dN][dL][dI][dD][dW][dW][dN]G; reading uncertain; also: Cys disulfide-linked to TGN peptide; listed as Homo sapiens)”, the “In vivo mRNA knockdown (%)” value [4] was 55%.

“TGN-S-S-SEQ ID NO: 1733 (D): TGN-S-S-peptide, peptide AC-GLFGALAEALAEALAEHLAEALAEALEALAAGGSC” was tested, and the “In vivo mRNA knockdown (%)” value [1] was 60%, the “In vivo mRNA knockdown (%)” value [2] was 75% and the “In vivo mRNA knockdown (%)” value (Table 6, mice, sequential, peptide IV 15 min after siRNA IV, TGN-L-siRNA-II 0.25 mg/kg, peptide 10 mg/kg) was 58%. The “In vivo mRNA knockdown (%)” value (Table 6, mice, sequential, peptide IV 15 min after siRNA IV, TGN-L-siRNA-II 0.25 mg/kg, peptide 50 mg/kg) was 50%, the “In vivo mRNA knockdown (%)” value [8] was 73% and the “In vivo mRNA knockdown (%)” value (Table 7, mice, TGN-L-siRNA-II 0.25 mg/kg, peptide 3 mg/kg, Sequential dosing-IV (peptide 15 min after siRNA)) was 69%. For the same substance, the “In vivo mRNA knockdown (%)” value (Table 7, mice, TGN-L-siRNA-II 0.25 mg/kg, peptide 3 mg/kg, Sequential dosing-SC (peptide 15 min after siRNA)) was 47%, the “In vivo mRNA knockdown (%)” value (Table 7, mice, TGN-L-siRNA-II 0.25 mg/kg, peptide 10 mg/kg, Sequential dosing-IV (peptide 15 min after siRNA)) was 58% and the “In vivo mRNA knockdown (%)” value (Table 7, mice, TGN-L-siRNA-II 0.25 mg/kg, peptide 10 mg/kg, Sequential dosing-SC (peptide 15 min after siRNA)) was 67%.

“TGN-S-S-SEQ ID NO: 1730 (D): TGN-S-S-peptide, peptide CGIGAVLHVLTTGLPALISWIKRKRQQ” was tested, and the “In vivo mRNA knockdown (%)” value [4] was 43%.

For “TGN-S-S-SEQ ID NO: 1634 (D) ([dC](TGN)G[dL][dF]G[dE][dI][dH][dE][dL][dI][dH][dH]G[dL][dE][dN][dL][dI][dD][dW][dW][dN]G; reading uncertain; also: Cys disulfide-linked to TGN peptide; listed as Homo sapiens)”, the “In vivo mRNA knockdown (%)” value [4] was 17%.

“TGN-S-S-SEQ ID NO: 1728(D) ([dC](TGN)G[dL][dF][dA][dV][dI][dE][dE][dV][dA][dS][dV][dI]GG[dL]; reading uncertain; also: Cys disulfide-linked to TGN peptide; listed as Homo sapiens)” was tested, and the “In vivo mRNA knockdown (%)” value [4] was 23%.

“TGN-S-S-SEQ ID NO: 1652 (D) ([dC](TGN)[dE][dL][dF][dE][dE][dL][dA][dE][dL][dL][dW][dE]G[dL][dE][dN][dL][dI][dD][dW]G[dN][dS]; reading uncertain; also: Cys disulfide-linked to TGN peptide; listed as Homo sapiens)” was tested, and the “In vivo mRNA knockdown (%)” value [4] was 37%.

For “TGN-S-S-SEQ ID NO: 1643 (D) ([dC](TGN)G[dF][dF]G[dE][dI][dA][dE][dL][dI][dE][dE]G[dL][dK][dN][dL][dI][dD][dW]G[dN]G; reading uncertain; also: Cys disulfide-linked to TGN peptide; listed as Homo sapiens)”, the “In vivo mRNA knockdown (%)” value [4] was 41%.

For “TGN-S-S-SEQ ID NO: 1740 (L): TGN-S-S-peptide, peptide GLFEAIEGFIENGWEGLAELAEALEALAAGGSC (GLFEAIEGFIENGWEGLAELAEALEALAAGGSC(TGN); reading uncertain; also: TGN attached via disulfide (S-S); listed as Homo sapiens)”, the “In vivo mRNA knockdown (%)” value [2] was 20%.

With “TGN-S-S-SEQ ID NO: 1729 (L) (C(TGN)GPSQPTYPGDDAPVRDLIRFYRDLRRYLNVVTRHRY; reading uncertain; also: Cys disulfide-linked to TGN peptide; listed as Homo sapiens)” the “In vivo mRNA knockdown (%)” value [4] was 10%.

In the case of “TGN-S-S-SEQ ID NO: 1719 (L) (C(TGN)GLFAEIEELIWEGLENLIDWWNQ; reading uncertain; also: Cys disulfide-linked to TGN peptide; listed as Homo sapiens)”, the “In vivo mRNA knockdown (%)” value [8] is reported as 25%.

With “TGN-S-S-SEQ ID NO: 1631 (D) ([dC](S‑S‑TGN)G[dL][dF]G[dH][dI][dH][dH][dL][dI][dH][dH]G[dL][dH][dN][dL][dI][dD][dW][dW][dN]G; reading uncertain; also: Cys disulfide-linked to TGN peptide; listed as Homo sapiens)” the “In vivo mRNA knockdown (%)” value [4] was 17%.

For “TGN-S-S-SEQ ID NO: 1732 (D): TGN-S-S-peptide, peptide AC-GIFEAIAGLLKINFKC”, the “In vivo mRNA knockdown (%)” value [8] was 35%.
